Reference: patent EP4721737A1, “USE OF PHARMACEUTICAL COMPOSITION COMPRISING COMPOUND HAVING BIS(AZANYLYLIDENE) SULFONYL STRUCTURE FOR TREATING ANEMIA-RELATED DISEASES” (Scinnohub Pharmaceutical Co., Ltd., priority 2023, dated 2024)
Where two headings read alike, the source gives them in different places.

Assays:
[1] = target: T1, PKR in ex vivo red blood cells of patients with thalassemia (Homo sapiens, UniProt P30613); experiment: ex vivo pyruvate kinase (PKR) activity experiment, red blood cells of patients with thalassemia; format: cell-based
T1 construct: endogenous in cells; host or cells: human red blood cells of thalassemia patients (Patients A-D)
T1 sequence (P30613 whole entry): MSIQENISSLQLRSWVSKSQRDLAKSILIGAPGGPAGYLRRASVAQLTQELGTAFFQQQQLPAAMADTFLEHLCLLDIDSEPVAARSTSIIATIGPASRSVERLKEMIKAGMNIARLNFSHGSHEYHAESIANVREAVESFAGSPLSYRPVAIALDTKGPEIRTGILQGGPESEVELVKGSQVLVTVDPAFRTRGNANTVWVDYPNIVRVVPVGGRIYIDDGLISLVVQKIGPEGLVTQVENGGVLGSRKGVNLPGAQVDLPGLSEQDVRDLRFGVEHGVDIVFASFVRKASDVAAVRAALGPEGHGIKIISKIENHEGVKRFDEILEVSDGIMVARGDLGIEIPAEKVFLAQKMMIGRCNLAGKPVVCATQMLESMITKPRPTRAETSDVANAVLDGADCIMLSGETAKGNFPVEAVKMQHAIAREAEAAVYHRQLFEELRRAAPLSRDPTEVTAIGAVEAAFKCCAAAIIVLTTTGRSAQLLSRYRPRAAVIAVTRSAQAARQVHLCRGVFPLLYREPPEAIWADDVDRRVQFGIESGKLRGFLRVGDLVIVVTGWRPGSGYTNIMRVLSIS
Method: To test the effects of the compound of the present disclosure on PKR activation in ex vivo red blood cells from healthy individuals and patients with thalassemia.
• i. 5 g of glucose, 85 mg of adenine, and 2.625 g of mannitol were weighed and added into a 50 mL centrifuge tube. 40 mL of PBS was added to dissolve (sonicate for 30 minutes until completely dissolved). The solution was filtered through a 0.22 µm filter, then added to 460 mL of sterile PBS and mixed thoroughly.
• i. Fresh human peripheral blood was collected. K2EDTA was used as the anticoagulant. 1 part anticoagulant with 9 parts blood was mixed, then centrifuged at 500 g for 10 minutes at room temperature to remove the plasma. • ii. Packed red blood cells: 1.5 volumes of PBS were added, then centrifuged at 2000 ×g for 5 minutes at room temperature. After centrifugation, the supernatant was removed. This step was repeated twice. • iii. Diluted red blood cells: 1.5 volumes of PBS were added, then resuspended and mixed thoroughly. • iv. The diluted red blood cells were slowly added to 0.5 volume of 70% isotonic solution (e.g., 7.5 mL of diluted red blood cells + 3 mL of 70% isotonic solution Percoll) and centrifuged at 4000 ×g for 20 minutes at 4°C. • v. The supernatant was removed. The red blood cells at the bottom were washed once with 4-5 mL of PBS to elute the Percoll gel, and then centrifuged at 2000 ×g for 5 minutes at room temperature. • vi. The supernatant was removed. The red blood cells were counted and then diluted in AGAM medium containing 10% FBS to a density of 2 × 10^8 cells/mL for storage at 4°C.
i. The red blood cells were seeded into a 96-well plate at a uniform density of 1 × 10^7 cells/mL, with 100 µL per well. The test compounds (dissolved in DMSO) were diluted and added to the cell culture medium, resulting in final compound concentrations of 3000, 1000, 300, 100, 10, 3, and 1 nM (with 1% DMSO). The cells and compounds were co-cultivated for 3 hours in a 37°C incubator with 5% CO2. Subsequently, the plate was centrifuged at 2000 g for 20 minutes, and the supernatant was discarded. 100 µL of red blood cell lysis buffer was added to the cell pellet, vortexed for 20 minutes, and centrifuged at 4000 g for 5 minutes. The supernatant was collected for analysis. ii. The reaction system was prepared according to the kit instructions (shown as the table below), 10 µL of the reaction system was added to each well of a 384-well plate, and 10 µL of red blood cell lysis buffer was took and mixed well (20 µL reaction system).
iii. A black, transparent-bottomed 384-well plate was placed in a microplate reader to measure fluorescence at 540/590 nm. The fluorescence was read every 2 minutes for 1 hour.
i. The Slope value was calculated over the assay time. Compound activation percentage was calculated using the 1% DMSO well as the control well. Activation percentage = (Slope of compound well / Slope of control well) × 100% ii. Dose-response curve was fit using the logarithmic compound concentration on the X-axis and the percent activation percentage on the Y-axis, the log(agonist) vs. response - variable slope function in GraphPad Prism 5 was used to determine the AC50 value for each compound on PKR activity. Y = min + (max−min)/(1+10^(∧)((LogAC50−X)×Hillslope)). [formula] The PKR agonist effects of the compound of the present disclosure on ex vivo red blood cells from healthy individuals and thalassemia patients were determined using the above assay. The AC50 values measured on ex vivo red blood cells from healthy individuals are as follows (A represents 0-100 nM, B represents 101-300 nM, and C represents 300-1000 nM): […]

[2] = test system: wild-type mice; experiment: in vivo efficacy study in wild-type mice (HGB, ATP, 2,3-DPG in whole blood); settings: C57BL/6J, whole blood 2-3 hours after last administration; for HGB: vehicle control 14.9; for ATP: vehicle control 452.0; for 2,3-DPG: vehicle control 1727.8
Method: The effects of the compound on wild-type mice were evaluated by detecting the concentrations of HGB, ATP, and 2,3-DPG in the whole blood of mice.
• i. On the day of administration, the compound was weighed, then the vehicle was added to prepare the administration solution: vehicle: 5% DMSO + 10% Solutol + 85% Saline
i. Wild-type mice were randomly divided into groups based on body weight, with 8 mice per group.
• i. Whole blood sample was collected 2-3 hours after the last administration of the test animal for HGB assay.
• i. An LC-MS/MS method was established to determine the ATP and 2,3-DPG contents in whole blood sample 2-3 hours after the last administration of the test animal.

[3] = pharmacokinetic properties test in rats; format: in vivo; settings: SD rat, single, plasma; for MRT last: read-out: MRT0-t; for Vd: read-out: Vss
Method: (§1) The pharmacokinetic properties of the compounds of the present disclosure in different animal species were investigated by measuring plasma drug concentrations following intravenous and oral gavage in mouse, rat, and dog.
(§2) i. The compounds were weighed, then the solvent (5% DMSO + 10% Solutol + 85% saline) was added to prepare the administration solution. ii. On the day before the experiment, animals in the oral administration group were fasted overnight (10-14 hours) and fed 4 hours after administration. iii. At each time point after administration, approximately 30 µL of venous blood was collected from an appropriate location in each group of animals and placed in a sodium heparin tube. Blood samples were placed on ice and centrifuged within 1 hour to separate plasma (centrifugation conditions: 6800 g, 6 min, 2-8°C). Plasma samples were stored at -80°C until analysis.
(§3) b) An LC-MS/MS analytical method was developed for measuring compound concentrations in mouse, rat, and dog plasma. This method was used to determine compound concentrations in biological samples obtained in this assay.
(§4) Pharmacokinetic parameters were calculated using Phoenix WinNonlin 7.0 using plasma drug concentration data at different time points.

[4] = pharmacokinetic properties test in dogs; format: in vivo; settings: dog, Beagle, single, plasma; for MRT last: read-out: MRT0-t; for Vd: read-out: Vss
Method: as §1, §2, §3, §4

[5] = thalassemia Patient A, read-out: AC50 (nM) Patient A
[6] = thalassemia Patient B, read-out: AC50 (nM) Patient B
[7] = thalassemia Patient C, read-out: AC50 (nM) Patient C
[8] = thalassemia Patient D, read-out: AC50 (nM) Patient D
[9] = 2.5 mg/kg oral gavage twice a day 14 days
[10] = 7.5 mg/kg oral gavage twice a day 14 days
[11] = 25 mg/kg oral gavage twice a day 14 days
[12] = 15 mg/kg oral gavage twice a day 14 days
[13] = 50 mg/kg oral gavage twice a day 14 days
[14] = 75 mg/kg oral gavage twice a day 14 days

AC50 [1, 5] [nM]	AC50 [1, 6] [nM]	AC50 [1, 7] [nM]	AC50 [1, 8] [nM]	AUC(0-t) ([3]; 1 mg/kg intravenous injection) [ng·h/mL]	Cmax ([3]; 1 mg/kg intravenous injection) [ng/mL]	Tmax ([3]; 1 mg/kg intravenous injection) [h]	clearance ([3]; 1 mg/kg intravenous injection) [mL/min/kg]	half-life ([3]; 1 mg/kg intravenous injection) [h]	MRT last ([3]; 1 mg/kg intravenous injection) [h]	Vd ([3]; 1 mg/kg intravenous injection) [L/kg]	AUC(0-t) ([3]; 10 mg/kg oral gavage, fasted) [ng·h/mL]	Cmax ([3]; 10 mg/kg oral gavage, fasted) [ng/mL]	Tmax ([3]; 10 mg/kg oral gavage, fasted) [h]	half-life ([3]; 10 mg/kg oral gavage, fasted) [h]	MRT last ([3]; 10 mg/kg oral gavage, fasted) [h]	AUC(0-t) ([4]; 2 mg/kg intravenous injection) [ng·h/mL]	Cmax ([4]; 2 mg/kg intravenous injection) [ng/mL]	Tmax ([4]; 2 mg/kg intravenous injection) [h]	clearance ([4]; 2 mg/kg intravenous injection) [mL/min/kg]	Structure (SMILES)	also measured
251	84.4	140	145	394	689	0.08	42.2	0.64	0.58	1.56	1730	993	0.25	1.53	2.24	8570	1770	0.14	3.72	N#Cc1ccc(S(=O)(=O)N2CC(=C3CN(C(=O)[C@H](CO)c4ccccc4)C3)C2)cc1 [Compound 65, (S)-4-(1'-(3-hydroxy-2-phenylpropionyl)-1',4'-dihydro-2H,2'H-[3,3'-diazetidinylidene]-1(4H)-ylsulfonyl)benzonitrile]	HGB [2, 9]: 15.1 g/dL; ATP [2, 9]: 481.5 µg/mL; 2,3-DPG [2, 9]: 1417.4 µg/mL; HGB [2, 10]: 14.9 g/dL; ATP [2, 10]: 486.5 µg/mL; 2,3-DPG [2, 10]: 1417.4 µg/mL; HGB [2, 11]: 14.9 g/dL; ATP [2, 11]: 475.9 µg/mL; 2,3-DPG [2, 11]: 1363.0 µg/mL; half-life ([4]; 2 mg/kg intravenous injection): 5.81 h; MRT last ([4]; 2 mg/kg intravenous injection): 5.53 h; Vd ([4]; 2 mg/kg intravenous injection): 1.55 L/kg; AUC(0-t) ([4]; 5 mg/kg oral gavage, fasted): 19500 ng·h/mL; Cmax ([4]; 5 mg/kg oral gavage, fasted): 2480 ng/mL; Tmax ([4]; 5 mg/kg oral gavage, fasted): 1.33 h; half-life ([4]; 5 mg/kg oral gavage, fasted): 4.47 h; MRT last ([4]; 5 mg/kg oral gavage, fasted): 5.28 h
21.8	20.9	24.8	11.7	537	731	0.08	29.9	4.91	2.12	5.11	3300	1740	0.25	3.43	3.2	3110	1590	0.08	11.2	O=C([C@H](CO)c1ccc(F)cc1F)N1CC(=C2CN(S(=O)(=O)c3ccccn3)C2)C1 [Compound 83, (S)-2-(2,4-difluorophenyl)-3-hydroxy-1-(1'-(pyridin-2-ylsulfonyl)-1',4'-dihydro-2H,2'H-[3,3'-diazetidinylidene]-1(4H)-yl)propan-1-one]	HGB [2, 12]: 15.3 g/dL; ATP [2, 12]: 476.9 µg/mL; 2,3-DPG [2, 12]: 1454.1 µg/mL; HGB [2, 13]: 15.4 g/dL; ATP [2, 13]: 472.1 µg/mL; 2,3-DPG [2, 13]: 1444.5 µg/mL; HGB [2, 14]: 14.6 g/dL; ATP [2, 14]: 474.1 µg/mL; 2,3-DPG [2, 14]: 1441.8 µg/mL; half-life ([4]; 2 mg/kg intravenous injection): 3.72 h; MRT last ([4]; 2 mg/kg intravenous injection): 2.79 h; Vd ([4]; 2 mg/kg intravenous injection): 1.93 L/kg; AUC(0-t) ([4]; 5 mg/kg oral gavage, fasted): 12200 ng·h/mL; Cmax ([4]; 5 mg/kg oral gavage, fasted): 3300 ng/mL; Tmax ([4]; 5 mg/kg oral gavage, fasted): 0.67 h; half-life ([4]; 5 mg/kg oral gavage, fasted): 5.21 h; MRT last ([4]; 5 mg/kg oral gavage, fasted): 4.51 h
